US20250276972A1, “COMPOUNDS AS CASEIN KINASE INHIBITORS” (GRITSCIENCE BIOPHARMACEUTICALS CO.,LTD., priority 2020, published 2025)
pEC50, pIC50: −log10 of the molar value.

Tests used:
[1] = biological target: wild type CK1δ (Homo sapiens, UniProt P48730); experiment: CK1δ kinase assay (Kinase-Glo); assay type: biochemical; details: 10 μM ATP, 2 nM wild type CK1δ, 85 min at 25° C.
Method: The reaction mixture was incubated for 85 min at 25° C.; detection was carried out as described for the Kinase-Glo Assay (Promega). Luminescent output was measured on the Perkin Elmer Envision plate reader (PerkinElmer, Waltham, MA).

[2] = biological target: T1, CK1δ (Homo sapiens, UniProt P48730); experiment: CK1δ inhibition (EC50); Bmal1-dLuc or Per2-dLuc U2OS luminescence rhythm period assay; assay type: cell-based; details: Table 3
T1 construct: endogenous in cells; host or cells: Bmal1-dLuc or Per2-dLuc U2OS cells
Method: Bmall-dLuc or Per2-dLuc U2OS cells were suspended in the culture medium (DMEM supplemented with 10% fetal bovine serum, 0.29 mg/mL L-glutamine, 100 units/mL penicillin, and […] streptomycin) and plated onto 96-well white solid-bottom plates at 200 μL (10,000 cells) per well. After 2 days, 100 μL of the explant medium (DMEM supplemented with 2% B27, 10 mM HEPES, 0.38 mg/mL sodium bicarbonate, 0.29 mg/mL L-glutamine, 100 units/mL penicillin, […], 0.1 mg/mL gentamicin, and 1 mM luciferin, pH 7.2) was dispensed to each well, followed by the application of 1 μL of a compound of the present application (dissolved in DMSO; final concentration was 0.7% in DMSO). The plate was covered with an optically clear film and set to microplate reader (Infinite M200, Tecan).

[3] = Intrinsic clearance in liver microsomes (human); assay type: in vitro ADME; details: Human liver microsomes 0.5 mg/mL, 2 μM compound, 37° C.; for microsomal CLint at 2 μM: read-out: in vitro CLint (μL/min/mg protein); for half-life at 2 μM: read-out: in vitro t1/2
Method: (§1) • 1. The master solution was prepared according to Table 5.
(§2) • 2. Three separated experiments were performed as follows. a) With NADPH: 10 μL of 20 mg/mL liver microsomes and 40 μL of 10 mM NADPH were added to the incubations. The final concentrations of microsomes and NADPH were 0.5 mg/mL and 1 mM, respectively. b) Without NADPH: 10 μL of 20 mg/mL liver microsomes and 40 μL of ultra-pure H2O were added to the incubations. The final concentration of microsomes was 0.5 mg/mL. c) Heat-inactivated microsomes without NADPH: 10 μL of 20 mg/mL heat-inactivated liver microsomes and 40 μL of ultra-pure H2O were added to the incubations. The final concentration of microsomes was 0.5 mg/mL. • 3. The reaction was started with the addition of 4 μL of 200 μM test compound solution or control compound solution at the final concentration of 2 μM and carried out at 37° C. • 4. Aliquots of 50 μL were taken from the reaction solution at 0, 15, 30, 45 and 60 min. […] Samples were centrifuged at 3, 220 g for 40 minutes. […] Data Analysis
(§3) Peak areas were determined from extracted ion chromatograms. The slope value, k, was determined by linear regression of the natural logarithm of the remaining percentage of the parent drug vs. incubation time curve.
(§4) The in vitro half-life (in vitro t1/2) was determined from the slope value:
(§5) Conversion of the in vitro t1/2 (min) into the in vitro intrinsic clearance (in vitro CLint, in μL/min/mg protein) was done using the following equation (mean of duplicate determinations): […]

[4] = Intrinsic clearance in liver microsomes (mouse); assay type: in vitro ADME; details: Mouse liver microsomes 0.5 mg/mL, 2 μM compound, 37° C.; for microsomal CLint at 2 μM: read-out: in vitro CLint (μL/min/mg protein); for half-life at 2 μM: read-out: in vitro t1/2
Method: as §1, §2, §3, §4, §5

T1 sequence (P48730 whole entry): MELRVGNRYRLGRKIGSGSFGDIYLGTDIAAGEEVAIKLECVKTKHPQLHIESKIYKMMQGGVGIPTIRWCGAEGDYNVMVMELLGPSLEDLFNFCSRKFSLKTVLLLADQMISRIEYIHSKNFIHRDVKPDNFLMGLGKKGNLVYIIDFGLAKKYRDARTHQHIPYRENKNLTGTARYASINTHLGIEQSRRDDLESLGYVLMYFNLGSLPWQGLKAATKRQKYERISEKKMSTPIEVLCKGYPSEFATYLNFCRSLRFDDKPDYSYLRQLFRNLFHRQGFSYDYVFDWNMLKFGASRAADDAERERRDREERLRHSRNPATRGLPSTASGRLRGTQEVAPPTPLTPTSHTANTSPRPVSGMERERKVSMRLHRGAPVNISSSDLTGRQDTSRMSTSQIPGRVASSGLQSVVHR
Chain of wild type CK1δ (P48730 whole entry): as above

Structure (SMILES): Cc1cc(-c2c(-c3ccc(F)cc3)nn3c2CN(C(=O)CCN(C)C)CC3)ccn1 [Compound I-6, 3-(dimethylamino)-1-(2-(4-fluorophenyl)-3-(2-methylpyridin-4-yl)-6,7-dihydropyrazolo[1,5-a]pyrazin-5(4H)-yl)propan-1-one]
- pIC50 [1]: 5.99
- pEC50 [2]: 5.13

Structure (SMILES): Cc1cc(-c2c(-c3ccc(F)cc3)nn3c2CN(CCO)CC3)ccn1 [Compound I-11, 2-(2-(4-fluorophenyl)-3-(2-methylpyridin-4-yl)-6,7-dihydropyrazolo[1,5-a]pyrazin-5. (4H)-yl)ethan-1-ol]
- microsomal CLint at 2 μM [3]: 8.74 µL/min/mg
- half-life at 2 μM [3]: 159 min
- microsomal CLint at 2 μM [4]: 16.3 µL/min/mg
- half-life at 2 μM [4]: 84.9 min

Structure (SMILES): Cc1cc(-c2c(-c3ccc(F)cc3)nn3c2CN(C(=O)C(F)(F)F)CC3)ccn1 [Compound I-16, 2,2,2-trifluoro-1-(2-(4-fluorophenyl)-3-(2-methylpyridin-4-yl)-6,7-dihydropyrazolo [1,5-a]pyrazin-5(4H)-yl)ethan-1-one]
- pIC50 [1]: 5.77
- pEC50 [2]: 5.28

Structure (SMILES): CS(=O)(=O)N1CCn2nc(-c3ccc(F)cc3)c(-c3ccnc(N)n3)c2C1 [Compound I-21, 4-(2-(4-fluorophenyl)-5-(methylsulfonyl)-4,5,6,7-tetrahydropyrazolo[1,5-a]pyrazin-3-yl)pyrimidin-2-amine.]
- pIC50 [1]: 6.44
- pEC50 [2]: 6.40

Structure (SMILES): CC(=O)Nc1cc(-c2c(-c3ccc(F)cc3)nn3c2CN(C2CCC2)CC3)ccn1 [Compound I-33, N-(4-(5-cyclobutyl-2-(4-fluorophenyl)-4,5,6,7-tetrahydropyrazolo[1,5-a]pyrazin-3-yl)pyridin-2-yl)acetamide]
- microsomal CLint at 2 μM [3]: 274 µL/min/mg
- half-life at 2 μM [3]: 5.06 min
- pEC50 [2]: 6.30
- microsomal CLint at 2 μM [4]: 1040 µL/min/mg
- half-life at 2 μM [4]: 1.33 min

Structure (SMILES): COCCN1CCn2nc(-c3ccc(F)cc3)c(-c3ccnc(NC(C)=O)c3)c2C1 [Compound I-40, N-(4-(2-(4-fluorophenyl)-5-(2-methoxyethyl)-4,5,6.7-tetrahydropyrazolo[1,5-a]pyrazin-3-yl)pyridin-2-yl)acetamide]
- microsomal CLint at 2 μM [3]: 52.5 µL/min/mg
- half-life at 2 μM [3]: 26.4 min
- pEC50 [2]: 6.15
- microsomal CLint at 2 μM [4]: 532 µL/min/mg
- half-life at 2 μM [4]: 2.61 min

Structure (SMILES): CC(=O)Nc1cc(-c2c(-c3ccc(F)cc3)nn3c2CN(CCF)CC3)ccn1 [Compound I-42, N-(4-(5-(2-fluoroethyl)-2-(4-fluorophenyl)-4,5,6,7-tetrahydropyrazolo[1,5-a]pyrazin-3-yl)pyridin-2-yl)acetamide]
- microsomal CLint at 2 μM [3]: 47.4 µL/min/mg
- half-life at 2 μM [3]: 29.2 min
- pEC50 [2]: 6.40
- microsomal CLint at 2 μM [4]: 975 µL/min/mg
- half-life at 2 μM [4]: 1.42 min

Structure (SMILES): CC(=O)Nc1cc(-c2c(-c3ccc(F)cc3)nn3c2CN(C2CC(O)C2)CC3)ccn1 (stereo not drawn) [Compound I-44, N-(4-(2-(4-fluorophenyl)-5-(3-hydroxycyclobutyl)-4,5,6,7-tetrahydropyrazolo[1,5-a]pyrazin-3-yl)pyridin-2-yl)acetamide]
- microsomal CLint at 2 μM [3]: 4.98 µL/min/mg
- half-life at 2 μM [3]: 278 min
- pEC50 [2]: 6.10
- microsomal CLint at 2 μM [4]: 20.5 µL/min/mg
- half-life at 2 μM [4]: 67.5 min

Structure (SMILES): CC(=O)N1CCn2nc(-c3ccc(F)cc3)c(-c3cc(N)ncn3)c2C1 [Compound I-63, 1-(3-(6-aminopyrimidin-4-yl)-2-(4-fluorophenyl)-6,7-dihydropyrazolo[1,5-a]pyrazin-5(4H)-yl)ethan-1-one]
- pIC50 [1]: 4.54

Structure (SMILES): CC(=O)N1CCn2nc(-c3ccc(F)cc3)c(-c3ccnc(NC(=O)C4(c5ccc(F)cc5)CC4)c3)c2C1 [Compound I-77, N-(4-(5-acetyl-2-(4-fluorophenyl)-4,5,6,7-tetrahydropyrazolo[1,5-a]pyrazin-3-yl)pyridin-2-yl)-1-(4-fluorophenyl)cyclopropane-1-carboxamide]
- microsomal CLint at 2 μM [3]: 25.2 µL/min/mg
- half-life at 2 μM [3]: 55 min
- pEC50 [2]: 5.70
- microsomal CLint at 2 μM [4]: 152 µL/min/mg
- half-life at 2 μM [4]: 9.14 min

Structure (SMILES): CN1CCn2nc(-c3ccc(F)cc3)c(-c3ccnc(NC(=O)Cc4ccc(F)cc4)c3)c2C1 [Compound I-80, 2-(4-fluorophenyl)-N-(4-(2-(4-fluorophenyl)-5-methyl-4,5,6,7-tetrahydropyrazolo [1,5-a]pyrazin-3-yl)pyridin-2-yl)acetamide]
- microsomal CLint at 2 μM [3]: 112 µL/min/mg
- half-life at 2 μM [3]: 12.3 min
- pEC50 [2]: 7.00
- microsomal CLint at 2 μM [4]: 552 µL/min/mg
- half-life at 2 μM [4]: 2.51 min

Structure (SMILES): CC(=O)N1CCn2nc(-c3ccc(F)cc3)c(-c3ccnc(NC(=O)C(C)c4ccc(F)cc4)c3)c2C1 (stereo not drawn) [Compound I-82, N-(4-(5-acetyl-2-(4-fluorophenyl)-4,5,6,7-tetrahydropyrazolo[1,5-a]pyrazin-3-yl)pyridin-2-yl)-2-(4-fluorophenyl)propanamide]
- microsomal CLint at 2 μM [3]: 16.5 µL/min/mg
- half-life at 2 μM [3]: 84.1 min
- pEC50 [2]: 7.00
- microsomal CLint at 2 μM [4]: 453 µL/min/mg
- half-life at 2 μM [4]: 3.06 min

Structure (SMILES): CN1CCn2nc(-c3ccc(F)cc3)c(-c3ccnc(NC(=O)C4CC4)c3)c2C1 [Compound I-89, N-(4-(2-(4-fluorophenyl)-5-methyl-4,5,6,7-tetrahydropyrazolo[1,5-a]pyrazin-3-yl)pyridin-2-yl)cyclopropanecarboxamide]
- microsomal CLint at 2 μM [3]: 94.3 µL/min/mg
- half-life at 2 μM [3]: 14.7 min
- pEC50 [2]: 6.15
- microsomal CLint at 2 μM [4]: 665 µL/min/mg
- half-life at 2 μM [4]: 2.09 min

Structure (SMILES): CC(=O)N1CCn2nc(-c3ccc(F)cc3)c(-c3ccnc(NCC(F)(F)F)c3)c2C1 [Compound I-96, 1-(2-(4-fluorophenyl)-3-(2-((2,2,2-trifluoroethyl)amino)pyridin-4-yl)-6,7-dihydropyrazolo [1,5-a]pyrazin-5(4H)-yl)ethan-1-one]
- microsomal CLint at 2 μM [3]: 3.74 µL/min/mg
- half-life at 2 μM [3]: 370 min
- pEC50 [2]: 5.35
- microsomal CLint at 2 μM [4]: 10 µL/min/mg
- half-life at 2 μM [4]: 138 min

Structure (SMILES): CCC(C)C(=O)Nc1cc(-c2c(-c3ccc(F)cc3)nn3c2CN(C)CC3)ccn1 (stereo not drawn) [Compound I-100, N-(4-(2-(4-fluorophenyl)-5-methyl-4,5,6,7-tetrahydropyrazolo[1,5-a]pyrazin-3-yl)pyridin-2-yl)-2-methylbutanamide]
- microsomal CLint at 2 μM [3]: 68.2 µL/min/mg
- half-life at 2 μM [3]: 20.3 min
- pEC50 [2]: 6.22
- microsomal CLint at 2 μM [4]: 465 µL/min/mg
- half-life at 2 μM [4]: 2.98 min

Structure (SMILES): CC(C)C(=O)Nc1cc(-c2c(-c3ccc(F)cc3)nn3c2CN(C)CC3)ccn1 [Compound I-102, N-(4-(2-(4-fluorophenyl)-5-methyl-4,5,6,7-tetrahydropyrazolo[1,5-a]pyrazin-3-yl)pyridin-2-yl)isobutyramide]
- microsomal CLint at 2 μM [3]: 29.9 µL/min/mg
- half-life at 2 μM [3]: 46.4 min
- pEC50 [2]: 6.15
- microsomal CLint at 2 μM [4]: 611 µL/min/mg
- half-life at 2 μM [4]: 2.27 min

Structure (SMILES): CCC(=O)Nc1cc(-c2c(-c3ccc(F)cc3)nn3c2CN(C)CC3)ccn1 [Compound I-103, N-(4-(2-(4-fluorophenyl)-5-methyl-4,5,6,7-tetrahydropyrazolo[1,5-a]pyrazin-3-yl)pyridin-2-yl)propionamide]
- microsomal CLint at 2 μM [3]: 49.8 µL/min/mg
- half-life at 2 μM [3]: 27.8 min
- pEC50 [2]: 6.30
- microsomal CLint at 2 μM [4]: 679 µL/min/mg
- half-life at 2 μM [4]: 2.04 min

Structure (SMILES): [2H]C([2H])([2H])c1cc(-c2c(-c3ccc(F)cc3)nn3c2CN(C(=O)CCN(C)C)CC3)ccn1 [Compound I-134, 3-(dimethylamino)-1-(2-(4-fluorophenyl)-3-(2-(methyl-d3)pyridin-4-yl)-6,7-dihydropyrazolo[1,5-a]pyrazin-5(4H)-yl)propan-1-one]
- pIC50 [1]: 5.75
